This is an account of results in patent publication US7750003B2, “Compounds-943” (AstraZeneca AB, priority 2006, dated 2010).

Several values for one entry are separate records, joined by “and”; a condition that tells them apart may be missing. Equal entries are not always repeated.

Experiment [1] deals with recombinant mTOR (FLAG-tagged, residues 1362-2549) (Homo sapiens, UniProt P42345). The experiment can be described thus: In vitro mTOR kinase assay (Test (a), AlphaScreen). Format: biochemical. The settings on record: ATP 20 μM, read-out: Test (a): IC50 versus mTOR kinase. An outline of the steps:
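AlphaScreen read-out: a phospho-T389 p70 S6K antibody on acceptor beads captures the phosphorylated biotin-peptide on donor beads, with signal loss indicating inhibition.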
For orientation: In Alpha technology, singlet oxygen from a donor bead excites a nearby acceptor bead.

The next experiment deals with T1, p110α Type Ia human PI3K (Homo sapiens, UniProt P42336).
T1 construct: full length DNA of each of the p110α, p110β and p110δ Type Ia human PI3K p110 isoforms; 6-His; made in house
The experiment can be described thus: In vitro PI3K enzyme assay (Test (b), AlphaScreen), p110α. The settings on record: ATP 4 μM, read-out: Test (b): IC50 versus p110α Type Ia human PI3K. Format: biochemical. The text has this:
(b) In Vitro PI3K Enzyme Assay
The assay used AlphaScreen technology (Gray et al., Analytical Biochemistry, 2003, 313: 234-245) to determine the ability of test compounds to inhibit phosphorylation by recombinant Type I PI3K enzymes of the lipid PI(4,5)P2.
DNA fragments encoding human PI3K catalytic and regulatory subunits were isolated from cDNA libraries using standard molecular biology and PCR cloning techniques. The selected DNA fragments were used to generate baculovirus expression vectors. In particular, full length DNA of each of the p110α, p110β and p110δ Type Ia human PI3K p110 isoforms (EMBL Accession Nos. HSU79143, S67334, Y10055 for p110α, p110β and p110δ respectively) were sub-cloned into a pDEST10 vector (Invitrogen Limited, Fountain Drive, Paisley, UK). The vector is a Gateway-adapted version of Fastbac1 containing a 6-His epitope tag. […]
Biotinylated-DiC8-PI(3,4,5)P3 (50 nM; Cell Signals Inc., Catalogue No. 107), recombinant purified GST-Grp1 PH protein (2.5 nM) and AlphaScreen Anti-GST donor and acceptor beads (100 ng; Packard Bioscience Limited, Station Road, Pangbourne, Berkshire, UK, Catalogue No. 6760603M) were added and the assay plates were left for about 5 to 20 hours at room temperature in the dark. The resultant signals arising from laser light excitation at 680 nm were read using a Packard AlphaQuest instrument. […]

Sequence of recombinant mTOR (FLAG-tagged, residues 1362-2549) (P42345 1362-2549): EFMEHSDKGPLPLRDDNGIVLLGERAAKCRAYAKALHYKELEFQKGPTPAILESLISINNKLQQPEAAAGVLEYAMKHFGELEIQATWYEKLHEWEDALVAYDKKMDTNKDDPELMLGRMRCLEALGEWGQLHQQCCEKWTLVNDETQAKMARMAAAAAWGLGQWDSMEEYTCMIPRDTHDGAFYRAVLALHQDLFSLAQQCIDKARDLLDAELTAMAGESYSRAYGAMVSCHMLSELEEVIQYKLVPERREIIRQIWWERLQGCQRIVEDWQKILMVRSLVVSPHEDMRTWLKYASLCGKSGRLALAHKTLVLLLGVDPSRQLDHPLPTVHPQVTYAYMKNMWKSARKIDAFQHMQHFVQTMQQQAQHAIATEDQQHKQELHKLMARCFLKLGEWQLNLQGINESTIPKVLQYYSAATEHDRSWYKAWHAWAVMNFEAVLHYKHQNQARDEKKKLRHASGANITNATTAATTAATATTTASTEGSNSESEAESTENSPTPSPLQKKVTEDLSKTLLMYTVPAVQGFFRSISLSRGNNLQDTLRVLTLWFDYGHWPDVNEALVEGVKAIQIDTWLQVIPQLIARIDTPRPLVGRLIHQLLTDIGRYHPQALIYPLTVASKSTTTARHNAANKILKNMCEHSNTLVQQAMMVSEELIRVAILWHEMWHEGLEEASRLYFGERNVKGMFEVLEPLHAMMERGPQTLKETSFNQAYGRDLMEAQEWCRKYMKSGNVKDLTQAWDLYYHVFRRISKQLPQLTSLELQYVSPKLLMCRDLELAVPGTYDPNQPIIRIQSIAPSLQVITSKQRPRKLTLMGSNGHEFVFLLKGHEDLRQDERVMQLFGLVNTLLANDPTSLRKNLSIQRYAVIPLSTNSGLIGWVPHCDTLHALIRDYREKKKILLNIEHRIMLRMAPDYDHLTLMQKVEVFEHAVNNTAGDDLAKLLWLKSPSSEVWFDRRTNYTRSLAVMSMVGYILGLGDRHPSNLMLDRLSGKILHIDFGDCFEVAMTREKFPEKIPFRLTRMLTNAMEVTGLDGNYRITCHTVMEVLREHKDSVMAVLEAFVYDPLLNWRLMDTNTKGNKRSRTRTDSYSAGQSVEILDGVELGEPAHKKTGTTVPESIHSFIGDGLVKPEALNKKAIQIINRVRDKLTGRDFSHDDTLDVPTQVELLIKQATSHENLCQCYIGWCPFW
T1 sequence (P42336 whole entry, canonical isoform): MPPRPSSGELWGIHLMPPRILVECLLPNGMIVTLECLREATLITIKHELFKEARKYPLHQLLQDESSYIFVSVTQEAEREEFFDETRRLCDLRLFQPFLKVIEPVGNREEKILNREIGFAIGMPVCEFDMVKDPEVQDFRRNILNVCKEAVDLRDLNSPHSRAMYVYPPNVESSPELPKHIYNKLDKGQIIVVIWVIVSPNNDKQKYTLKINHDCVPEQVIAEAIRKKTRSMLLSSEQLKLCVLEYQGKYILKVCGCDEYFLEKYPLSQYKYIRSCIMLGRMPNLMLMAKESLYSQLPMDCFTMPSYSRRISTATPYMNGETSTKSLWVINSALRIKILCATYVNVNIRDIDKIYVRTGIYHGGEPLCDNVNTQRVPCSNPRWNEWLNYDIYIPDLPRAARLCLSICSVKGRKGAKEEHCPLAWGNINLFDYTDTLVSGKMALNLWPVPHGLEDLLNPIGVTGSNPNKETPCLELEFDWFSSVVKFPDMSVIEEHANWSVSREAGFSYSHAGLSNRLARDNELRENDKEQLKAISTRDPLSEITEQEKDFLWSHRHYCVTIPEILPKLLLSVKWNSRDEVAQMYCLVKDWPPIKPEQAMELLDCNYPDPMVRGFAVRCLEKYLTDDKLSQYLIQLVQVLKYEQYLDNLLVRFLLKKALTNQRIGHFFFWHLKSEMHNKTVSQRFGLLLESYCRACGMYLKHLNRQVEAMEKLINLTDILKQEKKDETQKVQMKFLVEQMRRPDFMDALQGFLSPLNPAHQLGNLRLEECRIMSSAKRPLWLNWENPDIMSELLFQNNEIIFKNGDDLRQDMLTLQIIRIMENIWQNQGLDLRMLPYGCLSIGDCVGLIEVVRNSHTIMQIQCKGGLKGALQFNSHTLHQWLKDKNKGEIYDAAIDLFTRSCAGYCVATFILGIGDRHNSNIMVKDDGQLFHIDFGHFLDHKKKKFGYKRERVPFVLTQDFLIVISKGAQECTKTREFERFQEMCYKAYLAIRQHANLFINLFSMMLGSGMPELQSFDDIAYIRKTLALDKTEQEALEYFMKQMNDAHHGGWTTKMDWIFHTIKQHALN
T1 sequence (P27986 whole entry partner, canonical isoform): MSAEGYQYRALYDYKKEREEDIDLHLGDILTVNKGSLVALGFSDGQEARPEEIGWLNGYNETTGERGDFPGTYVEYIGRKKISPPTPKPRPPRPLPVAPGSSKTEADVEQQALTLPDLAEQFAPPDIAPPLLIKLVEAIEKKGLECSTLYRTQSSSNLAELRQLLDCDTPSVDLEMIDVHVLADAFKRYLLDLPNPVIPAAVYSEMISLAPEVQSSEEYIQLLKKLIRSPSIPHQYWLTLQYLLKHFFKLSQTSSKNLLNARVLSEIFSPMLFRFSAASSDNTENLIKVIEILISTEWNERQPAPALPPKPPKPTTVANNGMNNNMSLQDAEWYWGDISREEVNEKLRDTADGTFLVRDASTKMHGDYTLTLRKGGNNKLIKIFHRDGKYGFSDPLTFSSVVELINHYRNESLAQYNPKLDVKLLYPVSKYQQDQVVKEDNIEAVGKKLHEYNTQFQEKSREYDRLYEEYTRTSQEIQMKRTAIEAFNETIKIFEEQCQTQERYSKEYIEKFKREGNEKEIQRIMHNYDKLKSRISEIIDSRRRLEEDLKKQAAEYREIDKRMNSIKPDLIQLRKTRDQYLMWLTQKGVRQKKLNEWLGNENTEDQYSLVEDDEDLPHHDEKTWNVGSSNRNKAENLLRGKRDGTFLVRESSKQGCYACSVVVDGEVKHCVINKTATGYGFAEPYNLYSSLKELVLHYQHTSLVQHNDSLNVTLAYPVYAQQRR

Turning to `Cc1cc(NC(=O)Nc2ccc(-c3nc(CS(C)(=O)=O)cc(N4CCOCC4)n3)cc2)no1` [Example 34b, 1-(5-methyl-1,2-oxazol-3-yl)-3-[4-[4-(methylsulfonylmethyl)-6-morpholin-4-yl-pyrimidin-2-yl]phenyl]urea], the IC50 is 120 nM and 155 nM and 93 nM in experiment [1]; 91200 nM and 57800 nM at p110α Type Ia human PI3K.

One may read the IC50 as the point on the concentration scale where inhibition reaches its midpoint.
